# Test results from patent publication US20180055812A1, “METHOD AND COMPOSITIONS FOR TREATMENT OF CANCER” (priority 2008, published 2018).
# Read-outs that look alike come from different tables or passages of the source.
# Key:
# A549 cells = format: cell-based
# H460 cells = format: cell-based
# [1] = A549 cells, MTT, 5 days incubation
# [2] = H460 cells, MTT, 5 days incubation
smiles,measurement,setting,value
"O=[As][O-].[Na+] [Sodium Meta Arsenite, sodium meta arsenite]",IC50,A549 cells,13 µM
same,IC75,A549 cells,19 µM
same,IC90,A549 cells,17 µM
same,IC50,H460 cells,10 µM
same,IC75,H460 cells,20 µM
same,IC90,H460 cells,30 µM
"N.N.[Cl][Pt][Cl] [Cisplatin, cis-diamminedichloroplatinum (II), reference compound]",IC75,A549 cells; [1],2 µM
same,IC90,A549 cells; [1],4 µM
same,IC75,H460 cells; [2],1.7 µM
same,IC90,H460 cells; [2],2.5 µM
same,IC50,"H460 cells; H460 non-small cell lung cancer cells, MTT, 5 days incubation",1 µM
